# Measured values published in patent publication US11306066B2, “4H-pyran compounds as insulin-regulated aminopeptidase (IRAP) inhibitors” (Monash University, priority 2015, dated 2022).
# System: primary cultures of rat hippocampal neurons
# Assay: In vitro hippocampal spine density
# Type: cell-based
# Conditions: chronic treatment (3 doses of 10^−5M), days 14, 17 and 20; FIG. 1
# From the text: In Vitro Hippocampal Spine Density
# Dendritic spines are a complex, distinct cellular compartment that protrude from neuronal processes, and act as a source of synaptic contact vital for plasticity, signalling and neuronal integration. Hippocampal spine density increases in the rat brain after learning of an associative task, thereby acting as a substrate for the new memories. Drugs that enhance actin reorganisation in dendritic spines, a requirement for stabilisation of memory, have been proposed for the treatment of memory disorders.
# Hippocampi from E18 rat pups were dissected into cold Hank's Basic Salt Solution, rinsed three times and incubated in 5 ml of 0.12% w/v trypsin and 40 μg/ml DNAse (Sigma-Aldrich, St. Louis, USA) for 20 minutes at 37° C. Clumped cells were triturated for one minute with a sterile 1 ml pipette. […] Cell density in a 1/10 dilution was measured using a haemocytometer. […]
# For immunohistochemical staining of spines, coverslips were removed from plates and washed in PBS, then incubated in PBSX for 15 minutes to permeabilise membranes. […] Spines highlighted by drebrin immunostaining were counted in Image J. Single neurites were identified and all spines along a fifty micron segment were counted. […]
smiles,measurement,value
CC(=O)C1=C(C)OC(N)=C(C#N)C1c1ccc(C(=O)O)cc1.N (stereo not shown) [Test Compound 1],dendritic spine densities,statistically significant increases
